For 39 compounds, Activity results are on record in ChEMBL document CHEMBL3045322, “Synthesis and herbicidal activity of 2-acylimino-3-phenyl-1,3-thiazolines—A new family of bleaching herbicides—” (J Pestic Sci, 2006).

In one data set the test system is Echinochloa frumentacea. Nature of the data set: Herbicidal activity against Echinochloa frumentacea (Japanese millet) in plastic pot assessed as killing at 500 g/ha under greenhouse for 20 days by preemergence herbicidal activity tests. The data set is classed as functional.
Data set [1] has as its system Abutilon theophrasti. Nature of the data set: Herbicidal activity against Abutilon theophrasti (velvetleaf) in plastic pot assessed as killing at 500 g/ha under greenhouse for 20 days by preemergence herbicidal activity tests. Type of data set: functional.
Data set [2] deals with Ipomoea nil. Put plainly: Herbicidal activity against Ipomoea nil (Japanese morning glory) in plastic pot assessed as killing at 500 g/ha under greenhouse for 20 days by pre-emergence herbicidal activity tests. The data set is classed as functional.
Data set [3] relates to Abutilon theophrasti. Nature of the data set: Herbicidal activity against Abutilon theophrasti (velvetleaf) in field soil at 62.5 g/ha measured after 3 days by preemergence herbicidal activity tests. Type of data set: functional.
Data set [4] relates to Abutilon theophrasti. Nature of the data set: Herbicidal activity against Abutilon theophrasti (velvetleaf) in field soil at 125 g/ha measured after 3 days by preemergence herbicidal activity tests. Type of data set: functional.
Data set [5] has as its system Sida spinosa. Put plainly: Herbicidal activity against Sida spinosa in field soil at 125 g/ha measured after 3 days by preemergence herbicidal activity tests. Type of data set: functional.
Data set [6] has as its system Echinochloa crus-galli. Put plainly: Herbicidal activity against Echinochloa crus-galli (barnyard grass) in field soil at 125 g/ha measured after 3 days by preemergence herbicidal activity tests. Type of data set: functional.
Data set [7] concerns Sida spinosa. Nature of the data set: Herbicidal activity against Sida spinosa in field soil at 62.5 g/ha measured after 3 days by preemergence herbicidal activity tests. The data set is classed as functional.
In data set [8] the test system is Gossypium hirsutum. Nature of the data set: Phytotoxicity against Gossypium hirsutum (cotton) at 125 g/ha by selectivity assay. Type of data set: organism-based. Conditions: in vivo.
The subject of data set [9] is Sorghum halepense. Nature of the data set: Herbicidal activity against Sorghum halepense (Johnson grass) in field soil at 125 g/ha measured after 3 days by preemergence herbicidal activity tests. The data set is classed as functional.
Data set [10] concerns Amaranthus viridis. Put plainly: Herbicidal activity against Amaranthus viridis in field soil at 62.5 g/ha measured after 3 days by pre-emergence herbicidal activity tests. Type of data set: functional.
The subject of data set [11] is Ipomoea nil. Put plainly: Herbicidal activity against Ipomoea nil (Japanese morning glory) in field soil at 125 g/ha measured after 3 days by pre-emergence herbicidal activity tests. The data set is classed as functional.
The subject of data set [12] is Echinochloa crus-galli. Put plainly: Herbicidal activity against Echinochloa crus-galli (barnyard grass) in field soil at 62.5 g/ha measured after 3 days by preemergence herbicidal activity tests. The data set is classed as functional.
Data set [13] relates to Ipomoea nil. Put plainly: Herbicidal activity against Ipomoea nil (Japanese morning glory) in field soil at 62.5 g/ha measured after 3 days by pre-emergence herbicidal activity tests. Type of data set: functional.
The test system of data set [14] is Portulaca oleracea. Nature of the data set: Herbicidal activity against Portulaca oleracea in field soil at 125 g/ha measured after 3 days by preemergence herbicidal activity tests. The data set is classed as functional.
Data set [15] concerns Gossypium hirsutum. Nature of the data set: Phytotoxicity against Gossypium hirsutum (cotton) at 62.5 g/ha by selectivity assay. The data set is classed as organism-based. To be noted: in vivo.
Data set [16] deals with Amaranthus viridis. Nature of the data set: Herbicidal activity against Amaranthus viridis in field soil at 125 g/ha measured after 3 days by pre-emergence herbicidal activity tests. The data set is classed as functional.
Data set [17] relates to Sorghum halepense. Nature of the data set: Herbicidal activity against Sorghum halepense (Johnson grass) in field soil at 62.5 g/ha measured after 3 days by preemergence herbicidal activity tests. Type of data set: functional.
Data set [18] has as its system Portulaca oleracea. Nature of the data set: Herbicidal activity against Portulaca oleracea in field soil at 62.5 g/ha measured after 3 days by preemergence herbicidal activity tests. Type of data set: functional.
Data set [19] concerns Eleusine indica. Nature of the data set: Herbicidal activity against Eleusine indica in field soil at 125 g/ha measured after 3 days by preemergence herbicidal activity tests. The data set is classed as functional.
Data set [20] has as its system Eleusine indica. Nature of the data set: Herbicidal activity against Eleusine indica in field soil at 62.5 g/ha measured after 3 days by preemergence herbicidal activity tests. Type of data set: functional.

For the compound `CCOC(=O)/N=c1/sc(C)c(Br)n1-c1cccc(C(F)(F)F)c1`, the Activity in the data set with Echinochloa frumentacea was 20%; with Abutilon theophrasti [1], 0%; with Ipomoea nil [2] it was 40%.
In the case of `Cc1cn(-c2cccc(C(F)(F)F)c2)/c(=N/C(=O)C2CC2)s1`, the figures for the Activity in the data set on Echinochloa frumentacea, with Abutilon theophrasti [1] and in the data set on Ipomoea nil [2] were 90%, 40% and 60%, respectively.
On to `CCOC(=O)/N=c1/sc(C#N)cn1-c1cccc(C(F)(F)F)c1`, for which the Activity with Echinochloa frumentacea was 20%; in the data set with Abutilon theophrasti [1] it was 0%; in the data set with Ipomoea nil [2] it was 0%.
Turning to `CCOC(=O)/N=c1/sccn1-c1cccc(C(F)(F)F)c1`, the Activity in the data set on Echinochloa frumentacea is on record as 50%; in the data set on Abutilon theophrasti [1], 20%; with Ipomoea nil [2], 20%.
In the case of `Cc1cn(-c2cccc(C(F)(F)F)c2)/c(=N/C(=O)C(F)(F)F)s1`, the Activity in the data set with Abutilon theophrasti [3] is reported as 90%; with Abutilon theophrasti [4] it was 100%; in the data set with Sida spinosa [5], 100%; with Echinochloa crus-galli [6] it was 100%; with Sida spinosa [7], 90%; in the data set with Gossypium hirsutum [8], 30%. The Activity in the data set with Sorghum halepense [9] is 90%; in the data set on Amaranthus viridis [10], 90%; in the data set on Echinochloa frumentacea, 100%; in the data set with Ipomoea nil [11], 100%; with Echinochloa crus-galli [12] it was 80%; in the data set with Ipomoea nil [13] it was 80%. Besides, the Activity was 90% in the data set on Portulaca oleracea [14]; 10% with Gossypium hirsutum [15]; 100% in the data set on Amaranthus viridis [16]; 70% in the data set on Sorghum halepense [17]; 100% in the data set with Abutilon theophrasti [1]; 90% in the data set on Portulaca oleracea [18]. The Activity in the data set with Eleusine indica [19] came to 90%; in the data set with Ipomoea nil [2], 100%; in the data set on Eleusine indica [20], 80%.
With `CCNC(=O)/N=c1/sc(C)cn1-c1cccc(C(F)(F)F)c1`, the figures for the Activity in the data set with Echinochloa frumentacea, with Abutilon theophrasti [1] and in the data set on Ipomoea nil [2] were 80%, 40% and 40%, respectively.
In the case of `CCOC(=O)/N=c1/sc(Cl)cn1-c1cccc(C(F)(F)F)c1`, the Activity is 90% in the data set on Echinochloa frumentacea, 70% in the data set with Abutilon theophrasti [1] and 60% with Ipomoea nil [2].
As for `Cc1cn(-c2cccc(C(F)(F)F)c2)/c(=N/C(=O)CCl)s1`, the Activity in the data set on Echinochloa frumentacea is 20%; in the data set with Abutilon theophrasti [1] it was 0%; with Ipomoea nil [2] it was 0%.
Regarding `CC(=O)/N=c1/sc(C)cn1-c1cccc(C(F)(F)F)c1`, the Activity came out at 100% with Echinochloa frumentacea, 90% with Abutilon theophrasti [1] and 100% in the data set with Ipomoea nil [2].
Turning to `Cc1cn(-c2cccc(C(F)(F)F)c2)/c(=N/C(=O)C(F)(F)C(F)(F)F)s1`, the Activity in the data set with Echinochloa frumentacea was determined as 80%; in the data set with Abutilon theophrasti [1], 80%; in the data set with Ipomoea nil [2] it was 70%.
Consider `CCOC(=O)/N=c1/sc(C(C)C)cn1-c1cccc(C(F)(F)F)c1`, for which the Activity in the data set on Echinochloa frumentacea is given as 0%; in the data set on Abutilon theophrasti [1], 0%; with Ipomoea nil [2], 10%.
Take `CCOC(=O)/N=c1/sc(C)cn1-c1cccc(C(F)(F)F)c1`: the Activity in the data set with Echinochloa frumentacea, with Abutilon theophrasti [1] and in the data set on Ipomoea nil [2] was 90% throughout.
As for `CCOC(=O)/N=c1/scc(Cl)n1-c1cccc(C(F)(F)F)c1`, the Activity in the data set on Echinochloa frumentacea, in the data set with Abutilon theophrasti [1] and with Ipomoea nil [2] was 0% in each case.
For `CCOC(=O)/N=c1/scc(N)n1-c1cccc(C(F)(F)F)c1`, the results for the Activity in the data set on Echinochloa frumentacea, in the data set on Abutilon theophrasti [1] and with Ipomoea nil [2] were 30%, 0% and 10%, respectively.
`CCC(=O)/N=c1\sc(C)cn1-c1cccc(C(F)(F)F)c1`: the values for the Activity in the data set with Echinochloa frumentacea, in the data set on Abutilon theophrasti [1] and in the data set with Ipomoea nil [2] were 70%, 50% and 60%, respectively.
In the case of `Cc1cn(-c2cccc(C(F)(F)F)c2)/c(=N/C(=O)C(C)(C)C)s1`, the Activity is 50% with Echinochloa frumentacea, 40% in the data set with Abutilon theophrasti [1] and 60% with Ipomoea nil [2].
`Cc1cn(-c2cccc(C(F)(F)F)c2)/c(=N\S(C)(=O)=O)s1`: the Activity in the data set on Echinochloa frumentacea worked out at 90%; with Abutilon theophrasti [1] it was 80%; with Ipomoea nil [2] it was 80%.
Consider `CC(=S)/N=c1/sc(C)cn1-c1cccc(C(F)(F)F)c1`, for which the values for the Activity in the data set on Echinochloa frumentacea, in the data set with Abutilon theophrasti [1] and in the data set on Ipomoea nil [2] were 10%, 0% and 0%, respectively.
`Cc1cn(-c2cccc(C(F)(F)F)c2)/c(=N/C(=O)CF)s1`: the Activity is listed as 90% in the data set on Echinochloa frumentacea, 70% with Abutilon theophrasti [1] and 90% in the data set with Ipomoea nil [2].
Regarding `CCOC(=O)/N=c1/sc2c(n1-c1cccc(C(F)(F)F)c1)CCC2`, the Activity in the data set with Echinochloa frumentacea, in the data set on Abutilon theophrasti [1] and with Ipomoea nil [2] was 0% throughout.
Regarding `CCOC(=O)/N=c1/sc(SC)cn1-c1cccc(C(F)(F)F)c1`, the Activity with Echinochloa frumentacea is on record as 70%; with Abutilon theophrasti [1], 40%; in the data set on Ipomoea nil [2], 50%.
For `CCOC(=O)/N=c1/sc(Br)c(Br)n1-c1cccc(C(F)(F)F)c1`, the figures for the Activity with Echinochloa frumentacea, in the data set on Abutilon theophrasti [1] and with Ipomoea nil [2] were 20%, 0% and 40%, respectively.
Consider `CCNC(=S)/N=c1/sc(C)cn1-c1cccc(C(F)(F)F)c1`, for which the Activity is 20% in the data set with Echinochloa frumentacea, 0% in the data set with Abutilon theophrasti [1] and 0% in the data set on Ipomoea nil [2].
For `Cc1cn(-c2cccc(C(F)(F)F)c2)/c(=N\C(=O)N(C)C)s1`, the results for the Activity in the data set with Echinochloa frumentacea, in the data set on Abutilon theophrasti [1] and in the data set on Ipomoea nil [2] were 70%, 30% and 20%, respectively.
Take `Cc1cn(-c2cccc(C(F)(F)F)c2)/c(=N/C#N)s1`: the Activity with Echinochloa frumentacea was determined as 90%; in the data set with Abutilon theophrasti [1] it was 60%; in the data set with Ipomoea nil [2], 50%.
The corresponding values for `CCOC(=O)/N=c1/sc2c(n1-c1cccc(C(F)(F)F)c1)CCCC2` are 0%, 0% and 0%.
Consider `CCOC(=O)/N=c1/scc(C)n1-c1cccc(C(F)(F)F)c1`, for which the Activity with Echinochloa frumentacea, in the data set on Abutilon theophrasti [1] and in the data set on Ipomoea nil [2] was 0% throughout.
As for `Cc1cn(-c2cccc(C(F)(F)F)c2)c(=N)s1`, the Activity in the data set with Echinochloa frumentacea was 40%; in the data set with Abutilon theophrasti [1], 0%; in the data set on Ipomoea nil [2], 0%.
For the compound `Cc1cn(-c2cccc(C(F)(F)F)c2)/c(=N/c2ccc(Cl)cc2)s1`, the Activity with Echinochloa frumentacea, in the data set on Abutilon theophrasti [1] and in the data set with Ipomoea nil [2] was 0% throughout.
With `CCCc1cn(-c2cccc(C(F)(F)F)c2)/c(=N\C(=O)OCC)s1`, the Activity with Echinochloa frumentacea came out at 60%; with Abutilon theophrasti [1], 0%; with Ipomoea nil [2] it was 40%.
In the case of `Cc1cn(-c2cccc(C(F)(F)F)c2)/c(=N/C(=O)C(C)C)s1`, the figures for the Activity in the data set on Echinochloa frumentacea, in the data set with Abutilon theophrasti [1] and in the data set on Ipomoea nil [2] were 70%, 60% and 40%, respectively.
Regarding `C/N=c1/sc(C)cn1-c1cccc(C(F)(F)F)c1`, the Activity in the data set on Echinochloa frumentacea, in the data set on Abutilon theophrasti [1] and with Ipomoea nil [2] was 0% each time.
On to `Cc1cn(-c2cccc(C(F)(F)F)c2)/c(=N/C(=O)C(Cl)Cl)s1`, for which the Activity turned out to be 30% in the data set on Echinochloa frumentacea, 0% in the data set with Abutilon theophrasti [1] and 0% in the data set on Ipomoea nil [2].
For the compound `CSC(=S)/N=c1/sc(C)cn1-c1cccc(C(F)(F)F)c1`, the results for the Activity in the data set with Echinochloa frumentacea, in the data set on Abutilon theophrasti [1] and in the data set on Ipomoea nil [2] were 50%, 30% and 40%, respectively.
Consider `CCOC(=O)/N=c1/sc(I)cn1-c1cccc(C(F)(F)F)c1`, for which the Activity in the data set with Echinochloa frumentacea amounted to 80%; in the data set with Abutilon theophrasti [1], 60%; in the data set on Ipomoea nil [2], 90%.
As for `CCCC(=O)/N=c1\sc(C)cn1-c1cccc(C(F)(F)F)c1`, the Activity in the data set on Echinochloa frumentacea is reported as 40%; in the data set with Abutilon theophrasti [1] it was 20%; in the data set on Ipomoea nil [2], 40%.
Turning to `CCOC(=O)/N=c1/sc(CC)cn1-c1cccc(C(F)(F)F)c1`, the Activity with Echinochloa frumentacea, with Abutilon theophrasti [1] and with Ipomoea nil [2] was 70% in each case.
In the case of `Cc1cn(-c2cccc(C(F)(F)F)c2)/c(=N\C(=O)Nc2ccccc2)s1`, the Activity was determined as 60% in the data set with Echinochloa frumentacea, 60% with Abutilon theophrasti [1] and 40% in the data set on Ipomoea nil [2].
Regarding `CCOC(=O)/N=c1/sc(Br)cn1-c1cccc(C(F)(F)F)c1`, the Activity in the data set on Echinochloa frumentacea turned out to be 90%; with Abutilon theophrasti [1], 100%; with Ipomoea nil [2] it was 60%.
